Source: US20070128217A1 (priority 2003, published 2007)

Key:
[1] = system: rabbit serum obtained by immunizing a rabbit with the SARS-CoV strain Frankfurt 1; assay type: binding; set-up: Binding of a rabbit serum to linear peptides / Binding of a rabbit serum to looped peptides / Rabbit serum linear peptides / Rabbit serum looped peptides / Binding of a rabbit serum to linear peptides of protein N of SARS-CoV Urbani (Rabbit serum linear peptides) / Binding of a rabbit serum to looped/cyclic peptides of protein N of SARS-CoV Urbani (Rabbit serum looped peptides): unit not given here
[2] = system: control sera (pooled serum of ten healthy LUMC hospital workers; commercial negative donor pooled serum from the Dutch bloodbank); assay type: binding, human; set-up: Binding of Control serum LUMC to linear peptides / Binding of Control serum Blood-bank to linear peptides / Binding of Control serum LUMC to looped peptides / Binding of Control Serum Blood-Bank to Looped peptides / Binding of Control serum LUMC to linear peptides of the protein M of SARS-CoV Urbani / Binding of Control serum Blood-bank to linear peptides of the protein M of SARS-CoV Urbani / Binding of Control serum LUMC to looped peptides of the protein M of SARS-CoV Urbani / Binding of Control Serum Blood-Bank to Looped peptides of the protein M of SARS-CoV Urbani: unit not given here
[3] = system: antibodies in sera from SARS patients (sera 1a, 1b, 2, 6, 37, 62, London, SARS-yellow, SARS-green); assay type: binding, human; set-up: Binding of serum 6 to linear peptides of protein X1 of SARS-CoV Urbani / Binding of serum 37 to linear peptides of protein X1 of SARS-CoV Urbani / Binding of serum 6 to looped/cyclic peptide (PEPSCAN-ELISA) / Binding of serum 37 to looped/cyclic peptide (PEPSCAN-ELISA) / Binding of serum 37 to looped/cyclic peptides of protein X1 of SARS-CoV Urbani / Binding of serum 6 to linear peptides of protein X2 / Binding of serum 37 to linear peptides of protein X2 / Binding of serum 37 to looped/cyclic peptides of protein X2 of SARS-CoV Urbani / Binding of serum 6 to linear peptides of protein M of SARS-CoV Urbani / Binding of serum 37 to linear peptides of protein M of SARS-CoV Urbani / Binding of serum 6 to looped/cyclic peptides of protein M of SARS-CoV Urbani / Binding of serum 37 to looped/cyclic peptides of protein M of SARS-CoV Urbani / Binding of serum 6 to linear peptides of protein X3 of SARS-CoV Urbani / Binding of serum 37 to linear peptides of protein X3 of SARS-CoV Urbani / Binding of serum 37 to looped/cyclic peptides of protein X3 of SARS-CoV Urbani / Binding of serum 6 to linear peptides of protein X4 of SARS-CoV Urbani / Binding of serum 37 to linear peptides of protein X4 of SARS-CoV Urbani / Binding of serum 37 to looped/cyclic peptides of protein X4 of SARS-CoV Urbani / Binding of serum 6 to linear peptides of protein X5 of SARS-CoV Urbani / Binding of serum 37 to linear peptides of protein X5 of SARS-CoV Urbani / Binding of serum 37 to looped/cyclic peptides of protein X5 of SARS-CoV Urbani / Binding of serum 6 to linear peptides of protein N of SARS-CoV Urbani / Binding of serum 37 to linear peptides of protein N of SARS-CoV Urbani / Binding of serum 6 to linear peptide (PEPSCAN-ELISA) / Binding of serum 1a to looped/cyclic peptides of protein N of SARS-CoV Urbani / Binding of serum 1b to looped/cyclic peptides of protein N of SARS-CoV Urbani / Binding of serum 2 to looped/cyclic peptides of protein N of SARS-CoV Urbani / Binding of serum 6 to looped/cyclic peptides of protein N of SARS-CoV Urbani / Binding of serum 37 to looped/cyclic peptides of protein N of SARS-CoV Urbani / Binding of serum 62 to looped/cyclic peptides of protein N of SARS-CoV Urbani / Binding of serum London to looped/cyclic peptides of protein N of SARS-CoV Urbani / Binding of serum SARS-green to looped/cyclic peptides of protein N of SARS-CoV Urbani: unit not given here

In the case of AIAMACIVGLMWLSY, the “Rabbit serum linear peptides” value [1] is reported as 0.4, the “Rabbit serum looped peptides” value [1] is reported as 0.0 and the “Binding of Control Serum Blood-Bank to Looped peptides of the protein M of SARS-CoV Urbani” value [2] is reported as 0.6. The “Binding of Control serum Blood-bank to linear peptides of the protein M of SARS-CoV Urbani” value [2] was 0.7, the “Binding of Control serum LUMC to linear peptides of the protein M of SARS-CoV Urbani” value [2] was 0.3 and the “Binding of Control serum LUMC to looped peptides of the protein M of SARS-CoV Urbani” value [2] was 0.6. For the same sequence, the “Binding of serum 1a to linear peptides of protein M of SARS-CoV Urbani” value [3] was 0.7, the “Binding of serum 1a to looped/cyclic peptides of protein M of SARS-CoV Urbani” value [3] was 0.5 and the “Binding of serum 1b to linear peptides of protein M of SARS-CoV Urbani” value [3] was 0.5. The “Binding of serum 1b to looped/cyclic peptides of protein M of SARS-CoV Urbani” value [3] was 0.3, the “Binding of serum 2 to linear peptides of protein M of SARS-CoV Urbani” value [3] was 0.6 and the “Binding of serum 2 to looped/cyclic peptides of protein M of SARS-CoV Urbani” value [3] was 0.4. The “Binding of serum 6 to linear peptides of protein M of SARS-CoV Urbani” value [3] was 0.4, the “Binding of serum 6 to looped/cyclic peptides of protein M of SARS-CoV Urbani” value [3] was 0.6 and the “Binding of serum 37 to linear peptides of protein M of SARS-CoV Urbani” value [3] was 0.7. The “Binding of serum 37 to looped/cyclic peptides of protein M of SARS-CoV Urbani” value [3] was 0.5, the “Binding of serum 62 to linear peptides of protein M of SARS-CoV Urbani” value [3] was 0.7 and the “Binding of serum 62 to looped/cyclic peptides of protein M of SARS-CoV Urbani” value [3] was 0.4. For the same sequence, the “Binding of serum London to linear peptides of protein M of SARS-CoV Urbani” value [3] was 0.4, the “Binding of serum London to looped/cyclic peptides of protein M of SARS-CoV Urbani” value [3] was 0.2 and the “Binding of serum SARS-green to linear peptides of protein M of SARS-CoV Urbani” value [3] was 0.3. The “Binding of serum SARS-green to looped/cyclic peptides of protein M of SARS-CoV Urbani” value [3] was 4.4, the “Binding of serum SARS-yellow to linear peptides of protein M of SARS-CoV Urbani” value [3] was 0.1 and the “Binding of serum SARS-yellow to looped/cyclic peptides of protein M of SARS-CoV Urbani” value [3] was 0.8.
With QIQLSLLKVTAFQHQ the “Binding of a rabbit serum to linear peptides” value [1] was 0.6, the “Binding of a rabbit serum to looped peptides” value [1] was 0.5 and the “Binding of Control Serum Blood-Bank to Looped peptides” value [2] was 0.6. For the same sequence, the “Binding of Control serum Blood-bank to linear peptides” value [2] was 0.4, the “Binding of Control serum LUMC to linear peptides” value [2] was 0.7 and the “Binding of Control serum LUMC to looped peptides” value [2] was 0.6. The “Binding of serum 1a to linear peptides of protein X2” value [3] was 0.5, the “Binding of serum 1a to looped/cyclic peptides of protein X2 of SARS-CoV Urbani” value [3] was 0.6 and the “Binding of serum 1b to linear peptides of protein X2” value [3] was 0.4. For the same sequence, the “Binding of serum 1b to looped/cyclic peptides of protein X2 of SARS-CoV Urbani” value [3] was 0.5, the “Binding of serum 2 to linear peptides of protein X2” value [3] was 0.4 and the “Binding of serum 2 to looped/cyclic peptides of protein X2 of SARS-CoV Urbani” value [3] was 0.4. The “Binding of serum 6 to linear peptides of protein X2” value [3] was 0.4, the “Binding of serum 6 to looped/cyclic peptides of protein X2 of SARS-CoV Urbani” value [3] was 0.6 and the “Binding of serum 37 to linear peptides of protein X2” value [3] was 0.6. The “Binding of serum 37 to looped/cyclic peptides of protein X2 of SARS-CoV Urbani” value [3] was 0.4, the “Binding of serum 62 to linear peptides of protein X2” value [3] was 0.3 and the “Binding of serum 62 to looped/cyclic peptides of protein X2 of SARS-CoV Urbani” value [3] was 0.6. For the same sequence, the “Binding of serum London to linear peptides of protein X2” value [3] was 0.3, the “Binding of serum London to looped/cyclic peptides of protein X2 of SARS-CoV Urbani” value [3] was 0.7 and the “Binding of serum SARS-green to linear peptides of protein X2” value [3] was 0.2. The “Binding of serum SARS-green to looped/cyclic peptides of protein X2 of SARS-CoV Urbani” value [3] was 0.4, the “Binding of serum SARS-yellow to linear peptides of protein X2” value [3] was 0.4 and the “Binding of serum SARS-yellow to looped/cyclic peptides of protein X2 of SARS-CoV Urbani” value [3] was 0.6.
SKNPLLYDANYFVCW was tested, and the “Binding of a rabbit serum to linear peptides” value [1] was 0.1, the “Binding of a rabbit serum to looped peptides” value [1] was 0.6 and the “Binding of Control Serum Blood-Bank to Looped peptides” value [2] was 0.6. For the same sequence, the “Binding of Control serum Blood-bank to linear peptides” value [2] was 0.4, the “Binding of Control serum LUMC to linear peptides” value [2] was 0.5 and the “Binding of Control serum LUMC to looped peptides” value [2] was 0.6. For the same sequence, the “Binding of serum 1a to linear peptides of protein X1 of SARS-CoV Urbani” value [3] was 0.7, the “Binding of serum 1a to looped/cyclic peptide (PEPSCAN-ELISA)” value [3] was 0.6 and the “Binding of serum 1b to linear peptides of protein X1 of SARS-CoV Urbani” value [3] was 0.5. The “Binding of serum 1b to looped/cyclic peptide (PEPSCAN-ELISA)” value [3] was 0.5, the “Binding of serum 2 to linear peptides of protein X1 of SARS-CoV Urbani” value [3] was 0.4 and the “Binding of serum 2 to looped/cyclic peptide (PEPSCAN-ELISA)” value [3] was 0.5. The “Binding of serum 6 to linear peptides of protein X1 of SARS-CoV Urbani” value [3] was 0.5, the “Binding of serum 6 to looped/cyclic peptide (PEPSCAN-ELISA)” value [3] was 0.4 and the “Binding of serum 37 to linear peptides of protein X1 of SARS-CoV Urbani” value [3] was 0.5. The “Binding of serum 37 to looped/cyclic peptide (PEPSCAN-ELISA)” value [3] was 0.6, the “Binding of serum 62 to linear peptides of protein X1 of SARS-CoV Urbani” value [3] was 0.4 and the “Binding of serum 62 to looped/cyclic peptide (PEPSCAN-ELISA)” value [3] was 0.6. For the same sequence, the “Binding of serum London to linear peptides of protein X1 of SARS-CoV Urbani” value [3] was 0.2, the “Binding of serum London to looped/cyclic peptide (PEPSCAN-ELISA)” value [3] was 0.2 and the “Binding of serum SARS-green to linear peptides of protein X1 of SARS-CoV Urbani” value [3] was 0.2. For the same sequence, the “Binding of serum SARS-green to looped/cyclic peptide (PEPSCAN-ELISA)” value [3] was 0.4, the “Binding of serum SARS-yellow to linear peptides of protein X1 of SARS-CoV Urbani” value [3] was 0.4 and the “Binding of serum SARS-yellow to looped/cyclic peptide (PEPSCAN-ELISA)” value [3] was 0.5.
